According to ChEMBL document CHEMBL6109165, “Novel Triazole-Substituted Imidazo[1,2-a]Pyrimidine Compounds as cGAS inhibitors” (ACS Med Chem Lett, 2025):
In brackets after ≈: the same amount, converted by molar mass.

Columns and labels:
[1] = target: Cyclic GMP-AMP synthase (Homo sapiens) (UniProt Q8N884); experiment: Inhibition of human recombinant cGAS (157 to 522 residues) extracted from Escherichia coli BL21(DE3)cells using GTP/ATP as substrate incubated for 1 to 2 hrs by Rapidfire 300 mass spectrometric analysis; settings: time 1-2 hrs
[2] = Solubility of compound in FaSSIF at pH 6.5 measured after 4 hrs by HPLC-UV analysis; type: physicochemical
[3] = target: Cyclic GMP-AMP synthase (Homo sapiens) (UniProt Q8N884); experiment: Inhibition of cGAS in human whole blood incubated for 6 hrs by cytometric bead array; type: tissue-based

Chain of Cyclic GMP-AMP synthase (Homo sapiens) (Q8N884 whole entry, the tested form may be a part): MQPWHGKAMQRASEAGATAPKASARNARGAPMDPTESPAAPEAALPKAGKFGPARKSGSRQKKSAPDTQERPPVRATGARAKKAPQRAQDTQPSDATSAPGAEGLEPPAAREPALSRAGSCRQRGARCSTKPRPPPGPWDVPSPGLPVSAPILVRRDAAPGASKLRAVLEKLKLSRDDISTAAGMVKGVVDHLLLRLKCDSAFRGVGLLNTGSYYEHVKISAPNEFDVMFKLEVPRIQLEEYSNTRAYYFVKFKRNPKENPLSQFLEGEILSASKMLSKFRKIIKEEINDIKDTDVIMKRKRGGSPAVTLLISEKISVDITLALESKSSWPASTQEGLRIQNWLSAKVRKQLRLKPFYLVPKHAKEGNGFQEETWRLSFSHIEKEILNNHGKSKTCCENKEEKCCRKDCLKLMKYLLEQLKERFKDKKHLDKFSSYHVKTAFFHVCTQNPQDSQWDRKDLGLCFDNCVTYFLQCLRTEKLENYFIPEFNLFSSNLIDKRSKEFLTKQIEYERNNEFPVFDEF

SMILES: O=P(O)(O)OCn1nc(C(F)(F)F)nc1-c1nc2ncc(F)cn2c1-c1cnc[nH]1
- pXC50 [1]: 6.1
- solubility at 4 h [2]: > 1000 µg/mL

SMILES: Fc1cnc2nc(-c3nc(C(F)(F)F)n[nH]3)c(-c3c[nH]cn3)n2c1
- pXC50 [1]: 8.4
- pXC50 [3]: 6.5
- solubility at 4 h [2]: 5 µg/mL (≈ 14.8 µM)

SMILES: O=C(CCCOP(=O)(O)O)OCn1cnc(-c2c(-c3nc(C(F)(F)F)nn3COC(=O)CCCOP(=O)(O)O)nc3ncccn23)c1.O=C(O)C(F)(F)F
- pXC50 [1]: 7.5
- pXC50 [3]: 6.5
- solubility at 4 h [2]: > 1000 µg/mL

SMILES: FC(F)(F)c1n[nH]c(-c2nc3ncccn3c2-c2c[nH]cn2)n1
- solubility at 4 h [2]: 4 µg/mL (≈ 12.5 µM)
